Source: patent US20260364184A1, “COMPOUND BASED ON OXOISOINDOLINYL-SUBSTITUTED TETRAHYDROPYRIMIDINE-DIONE AND USE THEREOF” (GLUETACS THERAPEUTICS (SHANGHAI) CO., LTD., priority 2023, published 2026)

target: T1, IRAK4 (Homo sapiens, UniProt Q9NWZ3); test: Western blot degradation of IRAK4; assay type: cell-based; conditions: hPBMC Cell; 24 hours
T1 construct: expression of target proteins in cells; endogenous in cells
T1 sequence (Q9NWZ3 1-460): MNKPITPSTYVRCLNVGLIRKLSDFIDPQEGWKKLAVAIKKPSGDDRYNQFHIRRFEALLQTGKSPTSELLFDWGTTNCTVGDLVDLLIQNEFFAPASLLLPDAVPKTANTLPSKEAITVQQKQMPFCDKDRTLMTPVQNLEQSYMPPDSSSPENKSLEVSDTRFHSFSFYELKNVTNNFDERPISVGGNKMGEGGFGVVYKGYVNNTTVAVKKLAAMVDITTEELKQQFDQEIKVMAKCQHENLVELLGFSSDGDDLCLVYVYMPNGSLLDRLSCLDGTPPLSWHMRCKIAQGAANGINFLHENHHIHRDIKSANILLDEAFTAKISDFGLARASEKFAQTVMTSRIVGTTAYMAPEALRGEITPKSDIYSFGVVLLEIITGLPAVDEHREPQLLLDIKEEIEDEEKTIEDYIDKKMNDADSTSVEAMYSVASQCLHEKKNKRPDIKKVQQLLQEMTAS
Method: Conventional Western blot assay was performed to evaluate the effects of the compounds of the present disclosure on the expression of target proteins in cells.
(1) Cell Seeding and Protein Harvesting: The selected cells were processed according to the cell seeding procedure and protein harvesting procedure in Table II-2.
(2) To the collected supernatant, 5×SDS sample loading buffer was added, followed by denaturation at 95 °C for 5 minutes. The denatured samples were then separated by SDS-PAGE electrophoresis on a polyacrylamide gel. Proteins were transferred to a nitrocellulose membrane (0.45 μm NC membrane), blocked with blocking buffer at room temperature for 1 hour, and subjected to antibody incubation and development procedures according to the antibody manufacturer's instructions (Cell Signaling Technology).
Half-Maximal Degradation Concentration value (the drug concentration required for degrading proteins by 50%, abbreviated as DC50) reads method: comparing the grayscale values of Western blot bands from drug-treated samples with those from blank DMSO-treated controls, and identifying the drug concentration range at which the grayscale value is half that of the DMSO-treated control bands.
DC50 values can be calculated using ImageJ software to measure grayscale values of Western blot bands from drug-treated samples. The concentration-response curve is fitted to estimate the drug concentration corresponding to half the grayscale value.
Target protein remaining (%) refers to the percentage of target protein remaining in cells after treatment with protein degrader compounds.
Calculation method for target protein remaining (%): Use ImageJ software to measure grayscale values of Western blot bands from drug (protein degrader)-treated samples. The grayscale value of drug-treated bands is divided by that of internal control protein bands, and the resulting quotient is normalized to obtain the relative percentage of remaining target protein after protein degrader treatment.
Target protein degradation rate (%)=1−target protein remaining (%).

SMILES	Degradation of substrate protein IRAK4 (substrate protein remaining %)
O=C1CCN(N2C(=O)c3ccc(N4CCC(N5CCN(C[C@H]6CC[C@H](n7cc(NC(=O)c8cnn9ccc(N%10C[C@H]%11C[C@@H]%10CO%11)nc89)c(C(F)F)n7)CC6)CC5)C(F)(F)C4)cc3C2=O)C(=O)N1 (stereo partly drawn) [GT-05123]	A (0%≤substrate protein remaining %≤80%)
O=C1CCN(N2C(=O)c3ccc(N4C5CCC4CN(C[C@H]4CC[C@H](n6cc(NC(=O)c7cnn8ccc(N9C[C@H]%10C[C@@H]9CO%10)nc78)c(C(F)F)n6)CC4)C5)cc3C2=O)C(=O)N1 [GT-05240, 5-((1R,4R)-2-oxa-5-azabicyclo[2.2.1]heptan-5-yl)-N-(3-(difluoromethyl)-1-((1r,4R)-4-((8-(2-(2,4-dioxotetrahydropyrimidin-1(2H)-yl)-1,3-dioxoisoindolin-5-yl)-3,8-diazabicyclo[3.2.1]octan-3-yl)methyl)cyclohexyl)-1H-pyrazol-4-yl)pyrazolo[1,5-a]pyrimidine-3-carboxamide]	A (0%≤substrate protein remaining %≤80%)
CC(C)(O)c1cc2nn(C3CCN(CC4CCN(c5ccc6c(c5)C(=O)N(N5CCC(=O)NC5=O)C6=O)CC4)CC3)cc2cc1NC(=O)c1cccc(C(F)(F)F)n1 [GT-05220, N-(2-(1-((1-(2-(2,4-dioxotetrahydropyrimidin-1(2H)-yl)-1,3-dioxoisoindolin-5-yl)piperidin-4-yl)methyl)piperidin-4-yl)-6-(2-hydroxypropan-2-yl)-2H-indazol-5-yl)-6-(trifluoromethyl) picolinamide]	A (0%≤substrate protein remaining %≤80%)
COc1cc2nn([C@H]3CC[C@H](CN4CCN(c5cc(F)c6c(c5)C(=O)N(N5CCC(=O)NC5=O)C6=O)CC4)CC3)cc2cc1NC(=O)c1cccc(C(F)(F)F)n1 [GT-08657, N-(2-((1r,4r)-4-((4-(2-(2,4-dioxotetrahydropyrimidin-1(2H)-yl)-7-fluoro-1,3-dioxoisoindolin-5-yl)piperazin-1-yl)methyl)cyclohexyl)-6-methoxy-2H-indazol-5-yl)-6-(trifluoromethyl) picolinamide]	A (0%≤substrate protein remaining %≤80%)
COc1cc2nn([C@H]3CC[C@H](CN4C[C@@H]5C[C@H]4CN5c4ccc5c(c4)C(=O)N(N4CCC(=O)NC4=O)C5=O)CC3)cc2cc1NC(=O)c1cccc(C(F)(F)F)c1 [GT-08662, N-(2-((1S,4r)-4-(((1S,4S)-5-(2-(2,4-dioxotetrahydropyrimidin-1(2H)-yl)-1,3-dioxoisoindolin-5-yl)-2,5-diazabicyclo[2.2.1]heptan-2-yl)methyl)cyclohexyl)-6-methoxy-2H-indazol-5-yl)-3-(trifluoromethyl)benzamide]	A (0%≤substrate protein remaining %≤80%)
COc1cc2nn([C@H]3CC[C@H](CN4CCN(c5ccc6c(c5)C(=O)N(N5CCC(=O)NC5=O)C6=O)CC4)CC3)cc2cc1NC(=O)c1cccc(C(F)(F)F)n1 [GT-08647, N-(2-((1r,4r)-4-((4-(2-(2,4-dioxotetrahydropyrimidin-1(2H)-yl)-1,3-dioxoisoindolin-5-yl)piperazin-1-yl)methyl)cyclohexyl)-6-methoxy-2H-indazol-5-yl)-6-(trifluoromethyl) picolinamide]	A (0%≤substrate protein remaining %≤80%)
COc1ccc2cn(C3CCN(CC4CCN(c5ccc6c(c5)C(=O)N(N5CCC(=O)NC5=O)C6=O)CC4)CC3)nc2c1NC(=O)c1cccc(C(F)(F)F)c1 [GT-04885, N-(2-(1-((1-(2-(2,4-dioxotetrahydropyrimidin-1(2H)-yl)-1,3-dioxoisoindolin-5-yl)piperidin-4-yl)methyl)piperidin-4-yl)-6-methoxy-2H-indazol-7-yl)-3-(trifluoromethyl)benzamide]	A (0%≤substrate protein remaining %≤80%)
COc1cc2nn([C@H]3CC[C@H](CN4CC5CCC4CN5c4ccc5c(c4)C(=O)N(N4CCC(=O)NC4=O)C5=O)CC3)cc2cc1NC(=O)c1cccc(C(F)(F)F)c1 (stereo partly drawn) [GT-08673, N-(2-((1r,4r)-4-((5-(2-(2,4-dioxotetrahydropyrimidin-1(2H)-yl)-1,3-dioxoisoindolin-5-yl)-2,5-diazabicyclo[2.2.2]octan-2-yl)methyl)cyclohexyl)-6-methoxy-2H-indazol-5-yl)-3-(trifluoromethyl)benzamide]	A (0%≤substrate protein remaining %≤80%)
COc1cc2nn([C@H]3CC[C@H](CN4CCN(C5CCN(c6ccc7c(c6)C(=O)N(N6CCC(=O)NC6=O)C7=O)CC5)CC4)CC3)cc2cc1NC(=O)c1cccc(C(F)(F)F)n1 [GT-08658, N-(2-((1r,4r)-4-((4-(1-(2-(2,4-dioxotetrahydropyrimidin-1(2H)-yl)-1,3-dioxoisoindolin-5-yl)piperidin-4-yl)piperazin-1-yl)methyl)cyclohexyl)-6-methoxy-2H-indazol-5-yl)-6-(trifluoromethyl) picolinamide]	A (0%≤substrate protein remaining %≤80%)
O=C1CCN(N2C(=O)c3ccc(N4CCC(N5CCC(CN6CCC(n7cc(NC(=O)c8coc(-c9ccnc(NCC(F)(F)F)c9)n8)c(C(F)F)n7)CC6)CC5)CC4)cc3C2=O)C(=O)N1 [GT-05144, N-(3-(difluoromethyl)-1-(1-((1′-(2-(2,4-dioxotetrahydropyrimidin-1(2H)-yl)-1,3-dioxoisoindolin-5-yl)-[1,4′-bipiperidin]-4-yl)methyl)piperidin-4-yl)-1H-pyrazol-4-yl)-2-(2-((2,2,2-trifluoroethyl)amino)pyridin-4-yl) oxazole-4-carboxamide]	A (0%≤substrate protein remaining %≤80%)
CC(C)Nc1cc(-n2ccc3cc(C#N)cnc32)ncc1C(=O)NC1CCN(CC2CCN(c3ccc4c(c3)C(=O)N(N3CCC(=O)NC3=O)C4=O)CC2)CC1 [GT-05813, 6-(5-cyano-1H-pyrrolo[2,3-b]pyridin-1-yl)-N-(1-((1-(2-(2,4-dioxotetrahydropyrimidin-1(2H)-yl)-1,3-dioxoisoindolin-5-yl)piperidin-4-yl)methyl)piperidin-4-yl)-4-(isopropylamino) nicotinamide]	A (0%≤substrate protein remaining %≤80%)
COc1cc2nn([C@H]3CC[C@H](CN4CC5CCC4CN5c4ccc5c(c4)C(=O)N(N4CCC(=O)NC4=O)C5=O)CC3)cc2cc1NC(=O)c1cccc(C(F)(F)F)n1 (stereo partly drawn) [GT-08660, N-(2-((1r,4r)-4-((5-(2-(2,4-dioxotetrahydropyrimidin-1(2H)-yl)-1,3-dioxoisoindolin-5-yl)-2,5-diazabicyclo[2.2.2]octan-2-yl)methyl)cyclohexyl)-6-methoxy-2H-indazol-5-yl)-6-(trifluoromethyl) picolinamide]	A (0%≤substrate protein remaining %≤80%)
O=C1CCN(N2C(=O)c3ccc(N4CCC(CN5CCN(c6ccc7c(c6)nc(NC(=O)c6cccc(C(F)(F)F)c6)n7[C@H]6CC[C@@H](CO)CC6)CC5)CC4)cc3C2=O)C(=O)N1 [GT-05055, N-(5-(4-((1-(2-(2,4-dioxotetrahydropyrimidin-1(2H)-yl)-1,3-dioxoisoindolin-5-yl)piperidin-4-yl)methyl)piperazin-1-yl)-1-((1s,4s)-4-(hydroxymethyl)cyclohexyl)-1H-benzo[d]imidazol-2-yl)-3-(trifluoromethyl)benzamide]	A (0%≤substrate protein remaining %≤80%)
O=C1CCN(N2C(=O)c3ccc(N4CCC(N5CCC(CN6CCC(n7cc(NC(=O)c8coc(-c9ccnc(NCC%10CC%10)c9)n8)c(C(F)F)n7)CC6)CC5)CC4)cc3C2=O)C(=O)N1 [GT-05133, 2-(2-((cyclopropylmethyl)amino)pyridin-4-yl)-N-(3-(difluoromethyl)-1-(1-((1′-(2-(2,4-dioxotetrahydropyrimidin-1(2H)-yl)-1,3-dioxoisoindolin-5-yl)-[1,4′-bipiperidin]-4-yl)methyl)piperidin-4-yl)-1H-pyrazol-4-yl) oxazole-4-carboxamide]	A (0%≤substrate protein remaining %≤80%)
CC(C)(O)c1cc2nn(C3CCN(CC4CCN(c5cccc6c5C(=O)N(N5CCC(=O)NC5=O)C6=O)CC4)CC3)cc2cc1NC(=O)c1cccc(C(F)(F)F)n1 [GT-05221, N-(2-(1-((1-(2-(2,4-dioxotetrahydropyrimidin-1(2H)-yl)-1,3-dioxoisoindolin-4-yl)piperidin-4-yl)methyl)piperidin-4-yl)-6-(2-hydroxypropan-2-yl)-2H-indazol-5-yl)-6-(trifluoromethyl) picolinamide]	A (0%≤substrate protein remaining %≤80%)
